In ChEMBL document CHEMBL3352427, “Rational design of the first difluorostatone-based PfSUB1 inhibitors” (Bioorg Med Chem Lett, 2014):
Starred links: 1 amine or outer side, 2 acyl side, 3 side chain; linkers in the order of their positions; H or OH if unused. Non-standard residues stand in square brackets, D forms with d. Residues, ends and D or L forms follow the SMILES beside them. *: point of attachment. X1 = C[C@H](N[*:1])C(=O)C(F)(F)C(=O)[*:2]; X2 = C[C@H](N[*:1])C(O)C(F)(F)C(=O)[*:2]; Cbz = O=C(OCc1ccccc1)*; OBn = c1ccc(CO*)cc1; Bn = c1ccc(C*)cc1; βAla = NCCC(=O)O

Key:
[1] = target: T1, Subtilisin-like protease 1 (Plasmodium falciparum, UniProt O61142); test: Inhibition of Plasmodium falciparum serine protease subtilisin-like protease 1by fluorimetric assay
T1 sequence (O61142 whole entry): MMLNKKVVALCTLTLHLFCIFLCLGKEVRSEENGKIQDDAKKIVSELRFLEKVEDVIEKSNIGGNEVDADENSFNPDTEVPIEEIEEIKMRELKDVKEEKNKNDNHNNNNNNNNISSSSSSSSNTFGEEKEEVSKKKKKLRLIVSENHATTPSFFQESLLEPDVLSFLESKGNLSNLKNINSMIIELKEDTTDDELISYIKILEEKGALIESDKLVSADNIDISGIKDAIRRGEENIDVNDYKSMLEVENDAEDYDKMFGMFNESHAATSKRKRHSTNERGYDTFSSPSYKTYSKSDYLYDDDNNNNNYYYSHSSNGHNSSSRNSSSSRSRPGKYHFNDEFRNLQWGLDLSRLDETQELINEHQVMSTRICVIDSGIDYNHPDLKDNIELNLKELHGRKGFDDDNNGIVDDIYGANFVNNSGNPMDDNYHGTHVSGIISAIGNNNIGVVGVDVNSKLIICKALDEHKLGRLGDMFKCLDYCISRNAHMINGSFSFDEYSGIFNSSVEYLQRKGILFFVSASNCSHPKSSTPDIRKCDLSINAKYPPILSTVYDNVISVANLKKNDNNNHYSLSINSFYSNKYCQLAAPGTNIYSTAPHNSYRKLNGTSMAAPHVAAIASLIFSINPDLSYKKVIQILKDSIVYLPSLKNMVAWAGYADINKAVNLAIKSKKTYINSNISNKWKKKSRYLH

[2] = target: T2, Subtilisin-like protease 1 (Plasmodium falciparum) (UniProt O61142); test: Inhibition of Plasmodium falciparum serine protease subtilisin-like protease 1 at 100 uM by fluorimetric assay
T2 sequence (whole entry): T1 sequence (O61142 whole entry)

SMILES	IC50 [1]	inhibition [2]
CC[C@H](C)[C@H](NC(=O)[C@H](CCCCNC(=O)OCc1ccccc1)NC(C)=O)C(=O)N[C@H](C(=O)N[C@@H](C)C(=O)N[C@@H](C)C(=O)C(F)(F)C(=O)NCC(=O)OCc1ccccc1)[C@@H](C)OCc1ccccc1 (Ac-K(Cbz)IT(Bn)A[X1]G-OBn)	5 µM	71%
CC[C@H](C)[C@H](NC(=O)[C@H](CCCCN)NC(C)=O)C(=O)N[C@H](C(=O)N[C@@H](C)C(=O)N[C@@H](C)C(=O)C(F)(F)C(=O)NCC(=O)O)[C@@H](C)O (HELM PEPTIDE1{[ac].K.I.T.A.[C[C@H](N[*:1])C(=O)C(F)(F)C(=O)[*:2]].G}$$$$V2.0)	0.6 µM	100%
CC[C@H](C)[C@H](NC(=O)[C@H](CCCCNC(=O)OCc1ccccc1)NC(C)=O)C(=O)N[C@H](C(=O)N[C@@H](C)C(=O)N[C@@H](C)C(O)C(F)(F)C(=O)NCC(=O)OCc1ccccc1)[C@@H](C)OCc1ccccc1 (some centres undefined) (Ac-K(Cbz)IT(Bn)A[X2]G-OBn)	–	3%
CC[C@H](C)[C@H](NC(C)=O)C(=O)N[C@H](C(=O)N[C@@H](C)C(=O)N[C@@H](C)C(=O)C(F)(F)C(=O)NCC(=O)OCc1ccccc1)[C@@H](C)OCc1ccccc1 (Ac-IT(Bn)A[X1]G-OBn)	33 µM	59%
CC[C@H](C)[C@H](NC(C)=O)C(=O)N[C@H](C(=O)N[C@@H](C)C(=O)N[C@@H](C)C(=O)C(F)(F)C(=O)NCC(=O)O)[C@@H](C)O (HELM PEPTIDE1{[ac].I.T.A.[C[C@H](N[*:1])C(=O)C(F)(F)C(=O)[*:2]].G}$$$$V2.0)	0.6 µM	99%
CC[C@H](C)[C@H](NC(=O)[C@H](CCCCN)NC(C)=O)C(=O)N[C@H](C(=O)N[C@@H](C)C(=O)N[C@@H](C)C(=O)C(F)(F)C(=O)NCCC(=O)O)[C@@H](C)O (HELM PEPTIDE1{[ac].K.I.T.A.[C[C@H](N[*:1])C(=O)C(F)(F)C(=O)[*:2]].[bAla]}$$$$V2.0)	60 µM	63%
CC[C@H](C)[C@H](NC(=O)[C@H](CCCCNC(=O)OCc1ccccc1)NC(C)=O)C(=O)N[C@H](C(=O)N[C@@H](C)C(=O)N[C@@H](C)C(=O)C(F)(F)C(=O)NCCC(=O)OCc1ccccc1)[C@@H](C)OCc1ccccc1 (Ac-K(Cbz)IT(Bn)A[X1][βAla]-OBn)	–	14%
CC(=O)N[C@H](C(=O)N[C@@H](C)C(=O)N[C@@H](C)C(=O)C(F)(F)C(=O)NCC(=O)O)[C@@H](C)O	–	6%
CC[C@H](C)[C@H](NC(C)=O)C(=O)N[C@H](C(=O)N[C@@H](C)C(=O)N[C@@H](C)C(O)C(F)(F)C(=O)NCC(=O)OCc1ccccc1)[C@@H](C)OCc1ccccc1 (mixture of isomers)	–	0%
